Results as given in PMC3210832 (Journal of Pharmaceutical Sciences, 2011).

Key:
HIV-1 protease = HIV-1 protease (Human immunodeficiency virus type 1 group M subtype B, UniProt P04585); experiment: HIV-1 protease inhibition, fluorometric assay; format: biochemical
HIV-1 in MT4 cells = experiment: In vitro anti-HIV activity in MT4 cells, colorimetric XTT assay; format: cell-based; conditions: Human immunodeficiency virus 1, MT4
Transport = conditions: rat, pH 7.4
[1] = Bidirectional transport across Caco-2 cell monolayers; conditions: human, Caco-2, pH 7.4

Structure (SMILES)	Ki (HIV-1 protease) [nM]	EC50 (HIV-1 in MT4 cells) [nM]	Papp (Transport) [×10⁻⁶ cm/s]	Papp at 90 min (Transport) [×10⁻⁶ cm/s]	Papp A→B [1] [×10⁻⁶ cm/s]	Papp B→A [1] [×10⁻⁶ cm/s]	efflux ratio [1]
CNC(=O)[C@@H](NC(=O)[C@](O)(Cc1ccccc1)CN(Cc1ccc(-c2ccccn2)cc1)NC(=O)[C@@H](NC(=O)OC)C(C)(C)C)C(C)(C)C [Compound 11, methyl (S)-1-(2-((S)-2-benzyl-3-((S)-3,3-dimethyl-1-(methylamino)-1-oxobutan-2-ylamino)-2-hydroxy-3-oxopropyl)-2-(4-(pyridin-2-yl)benzyl)hydrazinyl)-3,3-dimethyl-1-oxobutan-2-ylcarbamate]	23	> 10000	3.8	< 8	3.4 ± 0.4	26 ± 9.1	7.6
CC(C)(C)NC(=O)[C@@H]1CN(Cc2cccnc2)CCN1C[C@@H](O)C[C@@H](Cc1ccccc1)C(=O)N[C@H]1c2ccccc2C[C@H]1O [Indinavir, reference compound]		41					
